Publication PMC10972746, “Substrate-induced condensation activates plant TIR domain proteins” (Nature, 2024)
Numbering of substitutions follows the chain as printed.

Columns and labels:
TX14–GFP [1] = target: T1, TX14–GFP (Arabidopsis thaliana, UniProt F4ISS7); assay: ATP-induced phase separation, confocal microscopy; conditions: 10 uM protein, 25 °C, 30 min; indirect read-out of binding
T1 construct: gene At2g32140; residues 1-351, GFP-tagged, pET-MBP-mGFP vector, E. coli BL21(DE3)
T1 sequence (F4ISS7 1-351): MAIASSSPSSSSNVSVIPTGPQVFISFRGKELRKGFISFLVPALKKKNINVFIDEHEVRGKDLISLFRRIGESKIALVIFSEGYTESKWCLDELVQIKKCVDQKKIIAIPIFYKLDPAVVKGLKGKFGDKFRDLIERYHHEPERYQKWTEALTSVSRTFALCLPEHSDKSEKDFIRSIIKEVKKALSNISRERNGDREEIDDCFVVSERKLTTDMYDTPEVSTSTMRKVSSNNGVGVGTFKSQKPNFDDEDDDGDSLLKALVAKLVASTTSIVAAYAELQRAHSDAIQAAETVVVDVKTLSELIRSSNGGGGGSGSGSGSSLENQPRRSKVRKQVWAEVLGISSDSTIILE

RPP1-TIR–GFP (RPP1-TIR) [2] = target: T2, RPP1-TIR–GFP (RPP1-TIR) (Arabidopsis thaliana, UniProt Q9ZSN5); assay: ATP-induced phase separation, confocal microscopy and turbidity; conditions: 1 mM ATP, 25 uM protein, 5% PEG 3,350, pH 8.0, 25 °C, 30 min; indirect read-out of binding
T2 construct: TIR domain residues 1-254, GFP-tagged, pET-MBP-mGFP vector, E. coli BL21(DE3); an untagged 60-254 form (GST cut, Sf21) was also made
T2 sequence (Q9ZSN5 1-254): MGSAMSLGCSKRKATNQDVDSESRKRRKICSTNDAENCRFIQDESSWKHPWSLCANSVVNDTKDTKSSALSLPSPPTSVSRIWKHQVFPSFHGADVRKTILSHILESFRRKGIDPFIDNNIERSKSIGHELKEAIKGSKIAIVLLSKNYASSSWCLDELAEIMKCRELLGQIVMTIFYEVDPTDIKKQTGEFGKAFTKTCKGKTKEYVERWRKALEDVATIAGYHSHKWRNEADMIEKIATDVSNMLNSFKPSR

RBA1–GFP [3] = target: T3, RBA1–GFP (Arabidopsis thaliana, UniProt F4HT77); assay: ATP-induced phase separation, confocal microscopy; conditions: 10 uM protein, 25 °C, 30 min; indirect read-out of binding
T3 construct: residues 1-191, GFP-tagged, pET-MBP-mGFP vector, E. coli BL21(DE3)
T3 sequence (F4HT77 1-191): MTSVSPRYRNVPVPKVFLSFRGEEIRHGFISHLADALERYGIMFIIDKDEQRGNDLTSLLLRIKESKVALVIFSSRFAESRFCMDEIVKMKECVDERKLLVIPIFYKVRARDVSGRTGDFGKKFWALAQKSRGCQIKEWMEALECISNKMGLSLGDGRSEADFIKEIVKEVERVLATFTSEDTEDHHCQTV

RPP1-TIR–GFP (RPP1-TIR) [4] = target: T2, RPP1-TIR–GFP (RPP1-TIR); assay: NADase assay, HPLC at […] nm; NAD+-induced phase separation by confocal microscopy; format: biochemical; conditions: 100 uM NAD+, 10 mM MgCl2, pH 8.0, 25 °C, 16 h; droplets: 1 mM NAD+, 25 uM protein, 5% PEG 3,350
TX14–GFP [5] = target: T4, TX14–GFP (Arabidopsis thaliana, UniProt F4ISS7, E57A/V58A/R59A/G60A/K61A/D62A); assay: NADase assay, HPLC at […] nm; format: biochemical; conditions: 100 uM NAD+, 10 mM MgCl2, pH 8.0, 25 °C, 16 h
T4 construct: gene At2g32140; residues 1-351, GFP-tagged, pET-MBP-mGFP vector, E. coli BL21(DE3)
T4 sequence (F4ISS7 1-351 E57A/V58A/R59A/G60A/K61A/D62A): T1 sequence (F4ISS7 1-351) with E57A, V58A, R59A, G60A, K61A, D62A

TX14–GFP [6] = target: T5, TX14–GFP (Arabidopsis thaliana, UniProt F4ISS7, S38D); assay: NADase assay, HPLC at […] nm; format: biochemical; conditions: 100 uM NAD+, 10 mM MgCl2, pH 8.0, 25 °C, 16 h; 40 uM protein
T5 construct: gene At2g32140; residues 1-351, GFP-tagged, pET-MBP-mGFP vector, E. coli BL21(DE3)
T5 sequence (F4ISS7 1-351 S38D): T1 sequence (F4ISS7 1-351) with S38D

RBA1–GFP [7] = target: T3, RBA1–GFP; assay: NADase assay, HPLC at […] nm; NAD+-induced phase separation by confocal microscopy; format: biochemical; conditions: 100 uM NAD+, 10 mM MgCl2, pH 8.0, 25 °C, 16 h; condensates: 10 uM protein, NAD+ 0.2 mM
TX14–GFP [8] = target: T1, TX14–GFP; assay: as above; format: biochemical; conditions: 100 uM NAD+, 10 mM MgCl2, pH 8.0, 25 °C, 16 h; condensates: 10 uM protein, NAD+ 0.2 mM

SMILES | ATP-induced phase separation, confocal microscopy (TX14–GFP [1]) | ATP-induced phase separation, confocal microscopy and turbidity (RPP1-TIR–GFP (RPP1-TIR) [2]) | ATP-induced phase separation, confocal microscopy (RBA1–GFP [3]) | NADase assay, HPLC at 260 nm; NAD+-induced phase separation by confocal microsco (RPP1-TIR–GFP (RPP1-TIR) [4]) | relative NADase activity (TX14–GFP [5]) | relative NADase activity (TX14–GFP [6]) | NADase assay, HPLC at 260 nm; NAD+-induced phase separation by confocal microsco (RBA1–GFP [7]) | NADase assay, HPLC at 260 nm; NAD+-induced phase separation by confocal microsco (TX14–GFP [8])
Nc1ncnc2c1ncn2[C@@H]1O[C@H](COP(=O)(O)OP(=O)(O)OP(=O)(O)O)[C@@H](O)[C@H]1O [ATP] | ATP and NAD^+/ATP induced phase separation of the TIR domain protein RBA1 and TX14 | ATP induced phase separation of the RPP1-TIR–GFP protein | ATP and NAD^+/ATP induced phase separation of the TIR domain protein RBA1 and TX14 |  |  |  |  | 
NC(=O)c1ccc[n+]([C@@H]2O[C@H](COP(=O)(O)OP(=O)(O)OC[C@H]3O[C@@H](n4cnc5c(N)ncnc54)[C@H](O)[C@@H]3O)[C@@H](O)[C@H]2O)c1 [NAD^+] |  |  |  | wild-type RPP1-TIR, RBA1 and TX14 proteins nearly completely consumed the NAD^+ substrate | NAD^+-hydrolysing activity was significantly reduced in the corresponding BB-loop mutant proteins | the mutations of the AE interface impaired the NADase activity of these TIR domain proteins | wild-type RPP1-TIR, RBA1 and TX14 proteins nearly completely consumed the NAD^+ substrate | wild-type RPP1-TIR, RBA1 and TX14 proteins nearly completely consumed the NAD^+ substrate
